According to patent US20200000721A1, “AQUEOUS COMPOSITIONS AND ASSOCIATED CREAM FORMULATIONS” (MedReleaf Corp., priority 2018, published 2020):

Tested on: microbial growth in the aqueous composition
Conditions: 0.09% in aqueous composition of Table 6
Protocol: Microbiological testing was conducted according to USP <51> and USP (Antimicrobial Effectiveness Test) and USP <61> and <62> (Suitability Testing) in order to compare the effectiveness of 1) 0.09% potassium sorbate 2) 0.045% potassium sorbate and 0.045% Euxul™ 9010 and 3) 0.09% Euxul™ 9010 as an antimicrobial agent for prohibiting microbial growth in the aqueous composition described in Table 6.

SMILES: C/C=C/C=C/C(=O)[O-].[K+] [potassium sorbate]
- effectiveness as antimicrobial agent (comparison): as effective as Euxul™ 9010 and/or the combination of Euxul™ 9010 and potassium sorbate
